Where a SMILES comes first, the peptide text is derived from it.

The test system of experiment [1] is importin β. As to the kind of experiment: Bead halo assay, biotinylated importin β on neutravidin beads. It counts as binding, human. To be noted: AF488-labeled; 1 mg/ml neuronal lysate added. The protocol:
To prepare biotinylated WT importin β-Avitag (pKW1982, pK1099), BL21DE3 cells (New England Biolabs, Ipswich, MA) were co-transfected with the respective plasmids together with pAC-biotin ligase (Avidity), followed by plating and growth in LB media containing ampicillin and chloramphenicol. After the 37°C cultures reached OD600nm + 0.4–0.6, the cultures were cooled to room temperature, supplemented with 100 µM D-biotin, and the expression was induced with 0.3 mM IPTG at room temperature for 8–11 hr (pKW762). Proteins were purified on Ni-NTA resin as described for the non-biotinylated importin β fragments.
(§1) The bead halo assay was carried out as described with minor modifications ([Patel and Rexach, 2008]), using […] polystyrene beads coated with neutravidin (for biotinylated proteins) or glutathione (for GST-fusion proteins) (Spherotech, Lake Forest, IL). Beads were coated overnight at 4°C at saturating concentrations per manufacturers’ instructions and rinsed 2x in binding buffer (20 mM HEPES [pH 7.4], 150 mM KOAc, 2 mM Mg(OAc)2, 1 mM DTT, 0.1% Tween-20). Immediately prior to the assay, fluorescent bait proteins and beads were combined with 4x assay buffer (40 mM EDTA, 40 mg/ml BSA, 500 mM NaCl, and 0.2% Tween) to a total of 40 µL per well, in optical glass-bottom 96-well plates (Cellvis, Mountain View, CA). […]

The test system of experiment [2] is BSA. As to the kind of experiment: Bead halo assay, biotinylated BSA-coated beads (non-specific control). In kind it is binding. Conditions: AF488-labeled. The method, then:
Purified WT importin β (pKW485) diluted to 10 µM in XB was combined with 10-molar excess of Alexa Fluor 647 NHS ester (ThermoFisher), using freshly-prepared 10 mM dye in anhydrous DMSO. After incubation on ice for 2 hr, the sample was dialyzed in PBS and concentrated on 30kD MWCO filter (Millipore Sigma) before storage. A similar protocol was used to label BSA with 10-molar excess Sulfo-NHS-LC-biotin (ThermoFisher), followed by dialysis in PBS.
as §1, with “CA). Reactions were allowed to equilibrate at room temperature for a minimum of 30 min prior to imaging at 100x on an LSM800 confocal microscope (Zeiss, Oberkochen, Germany).” for “CA).”

Experiment [3] concerns Nup100(1-307). In kind it is binding, S. cerevisiae. Conditions: AF488-labeled. The method, then: (§2) The expression of GST- Nsp1(497-609) in BL21(DE3) cells grown in LB media was induced at OD600nm = 0.4–0.6, followed by incubation at 37°C for 3–5 hr. The GST-tagged S. cerevisiae pGEX-Nup100(1-307), Nup100(1-610), Nup116(348-458) and Nup116(348-458)F > A were expressed in T7 Shuffle cells (NEB) that were grown in Dynamite media ([Taylor et al., 2017]) until OD600nm = 0.9 before induction with IPTG at 37°C for 3 hr. All the GST-tagged Nup fragments were purified using glutathione-sepharose affinity chromatography, as described for the GST-GFP-NLS above, and dialyzed into PBS before storage.
(§3) The bead halo assay was carried out as described with minor modifications ([Patel and Rexach, 2008]), using […] polystyrene beads coated with neutravidin (for biotinylated proteins) or glutathione (for GST-fusion proteins) (Spherotech, Lake Forest, IL). Beads were coated overnight at 4°C at saturating concentrations per manufacturers’ instructions and rinsed 2x in binding buffer (20 mM HEPES [pH 7.4], 150 mM KOAc, 2 mM Mg(OAc)2, 1 mM DTT, 0.1% Tween-20). Immediately prior to the assay, fluorescent bait proteins and beads were combined with 4x assay buffer (40 mM EDTA, 40 mg/ml BSA, 500 mM NaCl, and 0.2% Tween) to a total of 40 µL per well, in optical glass-bottom 96-well plates (Cellvis, Mountain View, CA). Reactions were allowed to equilibrate at room temperature for a minimum of 30 min prior to imaging at 100x on an LSM800 confocal microscope (Zeiss, Oberkochen, Germany). Intensity profiles comparing the maximum rim intensity to the background were plotted in ImageJ (NIH) by an investigator blinded to experimental conditions.

For experiment [4], the system named is Nup100(1-610). It counts as binding, S. cerevisiae. To be noted: AF488-labeled. The method, then: as §2, §3
The test system of experiment [5] is Nsp1(497-609). Kind of experiment: Bead halo assay, GST-Nsp1(497-609) FxFG domain. In kind it is binding, S. cerevisiae. To be noted: AF488-labeled. The method, then: as §2, §1
Experiment [6] deals with RCC1. Kind of experiment: DPR aggregation assay and western blot, RCC1 (negative control). In kind it is biochemical, human. Conditions: 100 µM 10mer in 2.5 mg/ml HEK lysate, normalized to untreated HEK. The method, then: (§4) Supernatant and pellet fractions (for all 5 DPRs, and control/buffer only) were prepared as in the nuclear transport assays, by adding 100 µM 10mers to 2.5 mg/ml HEK lysate in 100 µL TRB. Supernatants were boiled in Laemmli (BioRad) for 5 min. Pellets were boiled for 15 min followed by sonication in order to fully disperse aggregates for SDS-PAGE. Equal volumes of supernatant and pellet fractions were run on 4–12% Bolt Bis-Tris Plus gels (ThermoFisher), transferred to nitrocellulose membrane using an iBlot2 dry blotting system (ThermoFisher). Protein loading was analyzed by BLOT-Faststain (G-biosciences, St. Louis, MO), according to the manufacterers’ instructions. For immunodetection, membranes were blocked with 5% non-fat milk in TBST and probed by sequential incubation with the primary antibodies as detailed in the table below. Detection was by HRP-conjugated secondary antibodies/chemiluminescence using an ImageQuant LAS 4000 system (GE, Chicago, IL). To permit sequential probing of membranes without stripping, signals were quenched by incubation with prewarmed 30% H20_2 for 20 min ([Sennepin et al., 2009]). Band intensities were measured by ImageQuant software. For pellet vs. supernatant fractions, all were expressed as percent untreated control. For blots in Figure 1E, samples were run on 4–20% SDS PAGE minigels (ThermoFisher) and blotted to PVDF membranes (Immun-Blot PVDF, Bio-Rad) using the Bio-Rad TransBlot Turbo apparatus, and probed as above. The chemiluminescence signal was captured with a Bio-Rad ChemiDoc XRS+ digital imaging system.
In general terms: A western blot detects proteins with antibodies after separation by electrophoresis.

Experiment [7] concerns Nup54. As to the kind of experiment: DPR aggregation assay and western blot, Nup54. It counts as biochemical, human. Conditions: 100 µM 10mer in 2.5 mg/ml HEK lysate; Blot 1; normalized to untreated HEK. The protocol:
as §4, with “For blots in Figure 1E, samples were run on 4–20% SDS PAGE minigels (ThermoFisher) and blotted to PVDF membranes (Immun-Blot PVDF, Bio-Rad) using the Bio-Rad TransBlot Turbo apparatus, and probed as above. The chemiluminescence signal was captured with a Bio-Rad ChemiDoc XRS+ digital imaging system.” left out

In experiment [8] the test system is FUS. As to the kind of experiment: DPR aggregation assay and western blot, FUS. It counts as biochemical, human. Conditions: normalized to untreated HEK cells on the same membrane. The protocol:
as §4

For experiment [9], the system named is Matrin-3. As to the kind of experiment: DPR aggregation assay and western blot, Matrin-3. It counts as biochemical, human. To be noted: normalized to untreated HEK cells on the same membrane. The method, then: as §4
For experiment [10], the system named is hnRNPA1. Kind of experiment: DPR aggregation assay and western blot, hnRNPA1. In kind it is biochemical, human. To be noted: normalized to untreated HEK cells on the same membrane. The protocol: as §4
The test system of experiment [11] is hnRNPA2/B1. As to the kind of experiment: DPR aggregation assay and western blot, hnRNPA2/B1. Conditions: normalized to untreated HEK cells on the same membrane. It counts as biochemical, human. The protocol:
as §4

The target in experiment [12] is importin β-mediated nuclear import of Rango (Homo sapiens, UniProt Q14974). As to the kind of experiment: Permeabilized cell nuclear import assay, Rango, HeLa. It counts as cell-based.
importin β-mediated nuclear import of Rango, sequence (Q14974 whole entry): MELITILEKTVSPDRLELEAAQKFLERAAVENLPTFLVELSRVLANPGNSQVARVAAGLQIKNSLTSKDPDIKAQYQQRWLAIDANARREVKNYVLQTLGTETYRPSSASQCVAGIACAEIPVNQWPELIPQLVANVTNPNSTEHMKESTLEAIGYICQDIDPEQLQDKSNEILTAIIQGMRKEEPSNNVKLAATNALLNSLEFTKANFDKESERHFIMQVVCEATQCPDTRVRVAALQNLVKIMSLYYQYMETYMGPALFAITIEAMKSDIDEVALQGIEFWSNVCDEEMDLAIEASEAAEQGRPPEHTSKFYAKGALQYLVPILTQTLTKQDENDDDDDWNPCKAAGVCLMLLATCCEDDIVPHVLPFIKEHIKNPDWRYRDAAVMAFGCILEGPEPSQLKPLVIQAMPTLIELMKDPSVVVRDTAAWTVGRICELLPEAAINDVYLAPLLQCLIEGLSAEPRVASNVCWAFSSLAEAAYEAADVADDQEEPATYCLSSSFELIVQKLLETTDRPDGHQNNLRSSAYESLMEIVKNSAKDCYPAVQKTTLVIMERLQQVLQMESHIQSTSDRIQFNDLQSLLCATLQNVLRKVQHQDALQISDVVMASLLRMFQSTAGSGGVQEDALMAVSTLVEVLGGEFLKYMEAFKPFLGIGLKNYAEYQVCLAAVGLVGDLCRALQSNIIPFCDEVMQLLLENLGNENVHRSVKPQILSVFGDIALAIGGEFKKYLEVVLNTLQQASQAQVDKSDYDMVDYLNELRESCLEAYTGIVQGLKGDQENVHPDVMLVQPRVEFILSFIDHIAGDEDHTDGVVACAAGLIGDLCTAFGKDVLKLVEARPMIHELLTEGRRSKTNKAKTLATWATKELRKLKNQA

`N=C(N)NCCC[C@H](NC(=O)[C@@H]1CCCN1C(=O)[C@H](CCCNC(=N)N)NC(=O)[C@@H]1CCCN1C(=O)[C@H](CCCNC(=N)N)NC(=O)[C@@H]1CCCN1C(=O)[C@H](CCCNC(=N)N)NC(=O)[C@@H]1CCCN1C(=O)[C@H](CCCNC(=N)N)NC(=O)[C@@H]1CCCN1C(=O)[C@H](CCCNC(=N)N)NC(=O)[C@@H]1CCCN1C(=O)[C@H](CCCNC(=N)N)NC(=O)[C@@H]1CCCN1C(=O)[C@H](CCCNC(=N)N)NC(=O)[C@@H]1CCCN1C(=O)[C@H](CCCNC(=N)N)NC(=O)[C@@H]1CCCN1C(=O)[C@H](CCCNC(=N)N)NC(=O)[C@@H]1CCCN1)C(=O)O` [PR10] (H-PRPRPRPRPRPRPRPRPRPR-OH; N-terminus and C-terminus assumed): the “Binding to importin β-coated beads” value in experiment [1] is listed as “the intensity of the importin β halo persisted”. Further, the “Binding to BSA-coated beads” value in [2] (200 nM, binding buffer) is recorded as “modest non-specific binding”. The “Nonspecific binding to control beads” value in experiment [2] (1 mg/ml neuronal lysate added) is reported as “nonspecific binding decreased”. For the same compound, the “Binding to Nup100 GLFG-domain (halo intensity)” value in experiment [3] (binding buffer) and in experiment [4] (binding buffer) was “modest selective binding” each time. Also, the “FG-binding with added unlabeled importin β” value in [3] (+ unlabeled importin β), in experiment [4] (+ unlabeled importin β) and in experiment [5] was “FG-binding could be augmented” throughout. The “RCC1 band density, Pellet” value is listed as 27.7 % control in [6] (Blot 1) and 109.0 % control in [6] (Blot 2). Also, the “RCC1 band density, Supernatant” value is recorded as 103.7 % control in experiment [6] (Blot 1) and 124.4 % control in [6] (Blot 2). In addition, the “Nup54 band density, Pellet” value in [7] was 143.4 % control. The “Nup54 band density, Supernatant” value in experiment [7] is 96.8 % control. The “FUS band density, % control” value is 65.8 % control in experiment [8] (Pellet, Blot 1); 35.2 % control in experiment [8] (Pellet, Blot 2); 99.5 % control in experiment [8] (Supernatant, Blot 1); 123.2 % control in experiment [8] (Supernatant, Blot 2). Also, the “Matrin-3 band density, % control” value worked out at 407.8 % control in experiment [9] (Pellet, Blot 1); 159.1 % control in [9] (Pellet, Blot 2); 25.9 % control in experiment [9] (Supernatant, Blot 1); 42.9 % control in experiment [9] (Supernatant, Blot 2). Besides, the “hnRNPA1 band density, % control” value was 165.2 % control in [10] (Pellet, Blot 1); 367.1 % control in [10] (Pellet, Blot 2); 61.7 % control in [10] (Supernatant, Blot 1); 58.6 % control in experiment [10] (Supernatant, Blot 2). Further, the “hnRNPA2/B1 band density, % control” value amounted to 426.4 % control in experiment [11] (Pellet, Blot 1); 309.1 % control in experiment [11] (Pellet, Blot 2); 53.5 % control in experiment [11] (Supernatant, Blot 1); 56.7 % control in [11] (Supernatant, Blot 2).
Take “GA10: Synthetic 10-mer GA dipeptide repeat with C-terminal lysine and cysteine (GAGAGAGAGAGAGAGAGAGAKC)”: in experiment [12], the “NCT inhibition in permeabilized HeLa” value is “did not see NCT inhibition”.

The values above are taken from publication PMC7051184, “C9orf72 arginine-rich dipeptide repeat proteins disrupt karyopherin-mediated nuclear import” (eLife, 2020).
